In paper PMC12311725, “Identification of Ginsentide-like Peptides from Cacao Beans with Oxidative Stress Protection” (ACS Omega, 2025):
Where a SMILES comes first, the peptide text is derived from it. Bridges are numbered along the chain shown (N, C = ends). Where no end group is shown, it is not given here. The star is where a group is joined. 5FAM = O=C1OC2(c3ccc(O)cc3Oc3cc(O)ccc32)c2ccc(C(=O)*)cc21; Cam = NC(=O)C*

Legend:
HaCaT keratinocytes = assay: Live-cell confocal microscopy of internalization; type: cell-based, human; settings: 1 μM, 37 °C, 1 h, Z-stack confocal fluorescence
Procedure: HaCaT (human keratinocyte) cells were cultured in Dulbecco’s modification of Eagle’s medium (DMEM) supplemented with 10% fetal bovine serum and 100 U/mL penicillin and streptomycin. They were grown in a 5% CO2 humidified incubator at 37 °C
To examine the internalization of FAM-tC1 in living cells, the cells were seeded on an 8-well chamber slide (Ibidi). Prior to incubation with FAM-tC1, the cells were stained with […]. FAM-tC1 was incubated on cells in phenol red-free and serum-free medium for 1 h at 37 °C. The slides were washed gently with PBS three times, and the medium was replaced prior to imaging. The slides were observed by using a Zeiss LSM 980 confocal microscope.
8 Confocal image of fluorescent labeled FAM-tC1 in HaCaT keratinocytes. (A) 1 μM FAM-tC1 was incubated with HaCaT keratinocytes at 37 °C for 1 h, and Z-stack confocal analysis was performed. Green: FAM-tC1; Blue: Nucleus. The red outline indicates the region of interest (ROI) which is presented as a 3D-rendered Z-stack image on the right. (B) Fluorescence intensity line profiles measured across the ROI at three representative z-depths (bottom, middle, and top slice).

trypsin = assay: Peptide stability assay with trypsin (RP-HPLC); type: in vitro ADME; settings: trypsin in 0.1 M ammonium bicarbonate buffer pH 8, 37 °C, 6 h; peptide 0.1 M [sic]; RP-HPLC peak area as % of initial
Procedure: (§1) Stability studies were conducted using purified cocotide tC1 (0.1 M) and S-alkylated tC1 (iodoacetamido) under specific buffer conditions. Pepsin stability was assessed by incubating the samples in a mixture of pepsin at a ratio of 50:1 (w/v) in 0.2 M HCl at 37 °C. For trypsin stability, the samples were treated with trypsin in 0.1 M ammonium bicarbonate buffer (pH 8) at 37 °C. Analysis of stability assays involved collecting samples at various time points, which were then analyzed by reversed-phase high-performance liquid chromatography (RP-HPLC) using a linear gradient of mobile phase A (0.05% trifluoroacetic acid in water) and mobile phase B (0.05% trifluoroacetic acid in acetonitrile) on an Aeris Peptide XB-C18 column (Phenomenex). The stability results were expressed as a percentage of the initial concentration and determined by the peak area of the HPLC profile.
(§2) 7 Proteolytic stability assays of cocotide tC1. Cocotide tC1 was incubated with either pepsin or trypsin at 37 °C for up to 6 h. S-alkylated tC1 was used as the control. At different time points, samples of cocotide tC1 and the control were quantified using reversed-phase high pressure liquid chromatography (RP-HPLC). The relative peak areas of the RP-HPLC profiles were used to quantify the percentage of peptides remaining after incubation with pepsin or trypsin.

pepsin = assay: Peptide stability assay with pepsin (RP-HPLC); type: in vitro ADME; settings: pepsin 50:1 (w/v) in 0.2 M HCl, 37 °C, 6 h; peptide 0.1 M [sic]; RP-HPLC peak area as % of initial
Procedure: as §1, §2

[1] = Post-translational modification analysis of methionine oxidation (tims-TOF MS/MS); type: physicochemical; settings: native peptide from aqueous extract
Procedure: The primary sequences of cocotides from Theobroma cacao aqueous extracts were determined by LC-MS/MS sequencing as described previously. The C18-SPE fractionated Theobroma cacao aqueous extracts were redissolved in 20 mM DTT at 37 °C for 1 h followed by S-alkylation with 200 mM iodoacetamide at 37 °C for 1 h. The mixture was desalted with a C18 Zip-tip and subjected to analysis on a trapped ion mobility spectrometer-time-of-flight tandem mass spectrometer (tims-TOF MS/MS). Data analysis was performed using PEAKS Studio (version 11, Bioinformatics Solutions, Waterloo, ON, Canada) with a precursor ion tolerance of 10 ppm and a fragment ion tolerance of 0.05 Da. Carbamidomethylation at Cys was set as a fixed modification. Deamidation of […], oxidation of Met, and acetylation at Lys and N-term were set as variable modification. Peptide sequencing was performed using PEAKS DB protein identification, which integrates database search of an in-house ginsentide-like peptide library derived from Theobroma cacao transcriptome with de novo sequencing.

[2] = Ferric Reducing Antioxidant Power (FRAP) assay; settings: OxiSelect FRAP Assay Kit
Procedure: OxiSelect Ferric Reducing Antioxidant Power (FRAP) Assay Kit (Cell Biolabs, USA) was used to measure the antioxidant potential of cocotide tC1. The assay was performed according to the manufacturer’s instructions .

## CC[C@H](C)[C@@H]1NC(=O)CNC(=O)[C@H](CCSC)NC(=O)[C@@H]2CCCN2C(=O)[C@H](Cc2ccc(O)cc2)NC(=O)[C@H](CC(C)C)NC(=O)[C@@H]2CSSC[C@@H]3NC(=O)[C@H](Cc4ccccc4)NC(=O)CNC(=O)CNC(=O)[C@H](C)NC(=O)[C@H](CO)NC(=O)[C@H](CC(C)C)NC(=O)[C@@H](NC(=O)[C@@H](N)CCCCNC(=O)c4ccc5c(c4)C(=O)OC54c5ccc(O)cc5Oc5cc(O)ccc54)CSSC[C@@H]4NC(=O)[C@H](CSSC[C@H](NC1=O)C(=O)N[C@@H](Cc1ccc(O)cc1)C(=O)NCC(=O)N[C@@H](CO)C(=O)NCC(=O)N[C@H](C(=O)O)CSSC[C@H](NC(=O)[C@H](CC(N)=O)NC(=O)CNC4=O)C(=O)NCC(=O)N2)NC(=O)[C@H](CC(=O)O)NC(=O)[C@H](CCSC)NC(=O)[C@@H]1CCCN1C(=O)[C@H](CC(N)=O)NC(=O)[C@H](Cc1ccccc1)NC(=O)[C@H](CCSC)NC3=O [FAM-tC1] (H-K(5FAM)CLSAGGFCMFNPMDCCGNCGCLYPMGICYGSGC-OH; disulfide 2-17, 9-22, 16-29, 20-34)
HaCaT keratinocytes
  fluorescent signal in the nucleus: no fluorescent signals were detected in the nucleus
HaCaT keratinocytes; serum-free medium
  cell penetration (internalization): readily penetrates the cells

## CC[C@H](C)[C@H](NC(=O)CNC(=O)[C@H](CCSC)NC(=O)[C@@H]1CCCN1C(=O)[C@H](Cc1ccc(O)cc1)NC(=O)[C@H](CC(C)C)NC(=O)[C@H](CSCC(N)=O)NC(=O)CNC(=O)[C@H](CSCC(N)=O)NC(=O)[C@H](CC(N)=O)NC(=O)CNC(=O)[C@H](CSCC(N)=O)NC(=O)[C@H](CSCC(N)=O)NC(=O)[C@H](CC(=O)O)NC(=O)[C@H](CCSC)NC(=O)[C@@H]1CCCN1C(=O)[C@H](CC(N)=O)NC(=O)[C@H](Cc1ccccc1)NC(=O)[C@H](CCSC)NC(=O)[C@H](CSCC(N)=O)NC(=O)[C@H](Cc1ccccc1)NC(=O)CNC(=O)CNC(=O)[C@H](C)NC(=O)[C@H](CO)NC(=O)[C@H](CC(C)C)NC(=O)[C@@H](N)CSCC(N)=O)C(=O)N[C@@H](CSCC(N)=O)C(=O)N[C@@H](Cc1ccc(O)cc1)C(=O)NCC(=O)N[C@@H](CO)C(=O)NCC(=O)N[C@@H](CSCC(N)=O)C(=O)O [S-alkylated cocotide tC1, reference compound] (H-C(Cam)LSAGGFC(Cam)MFNPMDC(Cam)C(Cam)GNC(Cam)GC(Cam)LYPMGIC(Cam)YGSGC(Cam)-OH)
trypsin
  structural integrity retained (percentage of peptide remaining) after incubation with trypsin: degraded rapidly
pepsin
  structural integrity retained (percentage of peptide remaining) after incubation with pepsin: degraded rapidly

## CLSAGGFCVFNPMDCCGNCGCLYPMGICYGSGC (disulfide (positions not given here)) [cocotide tC7, ginsentide-like cysteine-rich peptide found in T. cacao aqueous extract]
[1]
  methionine oxidation pattern: minimal oxidation

## CLSAGGFCMFIPMDCCGNCGCLFPMGFCYGSGC (disulfide (positions not given here)) [cocotide tC2, ginsentide-like cysteine-rich peptide found in T. cacao aqueous extract]
[1]
  methionine oxidation pattern: Met9 was more prone to oxidation than Met13

## O=C1O[C@H]([C@@H](O)CO)C(O)=C1O [ascorbic acid, reference compound]
[2]
  FRAP value: 0.36 Fe^2+ μM/μM
